Measurements: US10231954B2, “Neurodegenerative therapies” (LYTIX BIOPHARMA AS, priority 2014, dated 2019)
Read-outs that look alike come from different tables or passages of the source.

Experiments:
Type in all cases: biochemical
JNK3 = JNK3 (Homo sapiens, UniProt P53779); experiment: Kinase profiling JNK3; settings: for remaining activity at 100 µM: read-out: residual kinase activity, JNK3
From the text: (§1) Any value less that 25 is considered to be highly significant inhibition.

p38b MAPK = p38b MAPK (Homo sapiens, UniProt Q15759); experiment: Kinase profiling p38b MAPK; settings: for remaining activity at 100 µM: read-out: residual kinase activity, p38b MAPK
p38b MAPK, sequence (Q15759 whole entry): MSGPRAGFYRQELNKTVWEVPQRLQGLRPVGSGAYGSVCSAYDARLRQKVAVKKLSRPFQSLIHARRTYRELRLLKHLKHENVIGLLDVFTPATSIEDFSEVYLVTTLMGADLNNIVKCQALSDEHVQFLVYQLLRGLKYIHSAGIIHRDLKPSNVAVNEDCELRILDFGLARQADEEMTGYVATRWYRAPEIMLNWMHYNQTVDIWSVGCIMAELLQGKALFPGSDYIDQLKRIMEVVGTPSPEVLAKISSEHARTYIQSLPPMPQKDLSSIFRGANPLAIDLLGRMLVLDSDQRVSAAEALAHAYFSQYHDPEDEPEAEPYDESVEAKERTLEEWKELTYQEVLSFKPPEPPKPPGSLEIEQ
From the text: as §1

p38d MAPK = biological target: T1, p38d MAPK (Homo sapiens, UniProt O15264); experiment: Kinase profiling p38d MAPK; settings: for remaining activity at 100 µM: read-out: residual kinase activity, p38d MAPK
T1 sequence (O15264 1-365): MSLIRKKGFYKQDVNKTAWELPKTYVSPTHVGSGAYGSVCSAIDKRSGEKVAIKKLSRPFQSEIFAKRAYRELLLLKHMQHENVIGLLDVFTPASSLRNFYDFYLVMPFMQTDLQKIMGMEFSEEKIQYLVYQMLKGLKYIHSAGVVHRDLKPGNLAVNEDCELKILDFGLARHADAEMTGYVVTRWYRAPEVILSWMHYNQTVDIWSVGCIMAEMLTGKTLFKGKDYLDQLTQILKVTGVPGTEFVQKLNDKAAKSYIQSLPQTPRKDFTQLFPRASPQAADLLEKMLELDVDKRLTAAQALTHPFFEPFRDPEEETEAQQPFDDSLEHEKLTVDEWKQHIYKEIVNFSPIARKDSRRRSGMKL
From the text: as §1

RSK1 = RSK1 (Homo sapiens, UniProt Q15418); experiment: Kinase profiling RSK1; settings: for remaining activity at 100 µM: read-out: residual kinase activity, RSK1
RSK1, sequence (Q15418 whole entry, species assumed): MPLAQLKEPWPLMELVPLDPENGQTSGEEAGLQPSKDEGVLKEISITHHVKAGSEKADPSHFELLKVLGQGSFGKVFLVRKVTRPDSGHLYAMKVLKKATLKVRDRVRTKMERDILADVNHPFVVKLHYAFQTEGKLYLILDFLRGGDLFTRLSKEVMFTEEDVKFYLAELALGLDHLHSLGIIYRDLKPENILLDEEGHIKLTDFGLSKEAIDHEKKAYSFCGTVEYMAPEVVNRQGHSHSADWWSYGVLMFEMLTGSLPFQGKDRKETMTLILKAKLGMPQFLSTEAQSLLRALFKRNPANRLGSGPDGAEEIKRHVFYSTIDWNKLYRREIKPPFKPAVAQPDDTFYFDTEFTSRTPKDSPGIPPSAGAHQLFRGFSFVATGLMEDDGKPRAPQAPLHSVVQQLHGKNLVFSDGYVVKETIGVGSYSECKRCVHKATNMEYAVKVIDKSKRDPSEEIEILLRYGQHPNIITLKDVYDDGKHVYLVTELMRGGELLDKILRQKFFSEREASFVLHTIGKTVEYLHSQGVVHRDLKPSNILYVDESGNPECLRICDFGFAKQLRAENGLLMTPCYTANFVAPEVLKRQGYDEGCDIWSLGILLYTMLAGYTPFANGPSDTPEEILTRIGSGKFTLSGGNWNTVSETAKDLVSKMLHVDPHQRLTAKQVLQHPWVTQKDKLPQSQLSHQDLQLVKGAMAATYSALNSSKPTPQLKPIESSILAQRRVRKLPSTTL
From the text: as §1

PKCa = PKCa (Homo sapiens, UniProt P17252); experiment: Kinase profiling PKCa; settings: for remaining activity at 100 µM: read-out: residual kinase activity, PKCa
From the text: as §1

PKD1 = biological target: T2, PKD1 (Homo sapiens, UniProt Q15139); experiment: Kinase profiling PKD1; settings: for remaining activity at 100 µM: read-out: residual kinase activity, PKD1
T2 sequence (Q15139 1-912): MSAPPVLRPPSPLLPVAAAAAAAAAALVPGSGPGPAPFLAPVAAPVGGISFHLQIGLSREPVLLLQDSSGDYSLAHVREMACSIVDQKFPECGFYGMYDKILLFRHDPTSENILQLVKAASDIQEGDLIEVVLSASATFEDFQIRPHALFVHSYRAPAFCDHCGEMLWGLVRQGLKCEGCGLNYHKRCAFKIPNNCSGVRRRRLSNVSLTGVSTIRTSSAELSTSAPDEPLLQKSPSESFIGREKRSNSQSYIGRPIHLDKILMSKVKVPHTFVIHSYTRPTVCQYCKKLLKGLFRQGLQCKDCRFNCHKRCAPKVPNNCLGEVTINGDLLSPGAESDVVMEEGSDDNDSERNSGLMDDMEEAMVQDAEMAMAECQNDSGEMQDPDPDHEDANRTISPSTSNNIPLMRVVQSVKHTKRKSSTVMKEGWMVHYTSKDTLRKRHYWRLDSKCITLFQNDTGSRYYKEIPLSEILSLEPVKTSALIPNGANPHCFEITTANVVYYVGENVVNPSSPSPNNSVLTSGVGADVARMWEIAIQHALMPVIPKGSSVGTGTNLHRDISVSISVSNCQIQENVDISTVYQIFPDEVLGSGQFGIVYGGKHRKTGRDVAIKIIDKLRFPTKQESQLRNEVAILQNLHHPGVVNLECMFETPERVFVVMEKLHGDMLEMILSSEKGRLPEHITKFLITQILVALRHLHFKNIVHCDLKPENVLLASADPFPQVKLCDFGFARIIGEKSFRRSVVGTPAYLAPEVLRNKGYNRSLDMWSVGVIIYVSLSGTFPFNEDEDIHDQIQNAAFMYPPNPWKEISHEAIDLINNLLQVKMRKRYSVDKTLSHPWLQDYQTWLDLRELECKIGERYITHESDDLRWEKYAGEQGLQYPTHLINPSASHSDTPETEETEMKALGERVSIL
From the text: as §1

CHK2 = CHK2 (Homo sapiens, UniProt O96017); experiment: Kinase profiling CHK2; settings: for remaining activity at 100 µM: read-out: residual kinase activity, CHK2
CHK2, sequence (O96017 whole entry, species assumed): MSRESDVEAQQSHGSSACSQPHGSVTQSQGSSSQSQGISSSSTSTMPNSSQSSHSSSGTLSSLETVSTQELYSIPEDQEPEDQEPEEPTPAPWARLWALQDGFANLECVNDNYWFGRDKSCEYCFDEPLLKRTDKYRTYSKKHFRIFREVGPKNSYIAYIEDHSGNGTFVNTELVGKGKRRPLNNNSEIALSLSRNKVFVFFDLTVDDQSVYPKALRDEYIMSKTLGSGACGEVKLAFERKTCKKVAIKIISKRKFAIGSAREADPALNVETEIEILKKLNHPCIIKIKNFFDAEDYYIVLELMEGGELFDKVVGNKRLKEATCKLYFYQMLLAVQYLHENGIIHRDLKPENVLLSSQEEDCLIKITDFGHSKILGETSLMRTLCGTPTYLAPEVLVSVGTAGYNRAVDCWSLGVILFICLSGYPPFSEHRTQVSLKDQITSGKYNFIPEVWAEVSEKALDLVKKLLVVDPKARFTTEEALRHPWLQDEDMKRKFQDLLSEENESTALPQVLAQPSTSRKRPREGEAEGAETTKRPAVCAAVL
From the text: as §1

MARK3 = MARK3 (Homo sapiens, UniProt P27448); experiment: Kinase profiling MARK3; settings: for remaining activity at 100 µM: read-out: residual kinase activity, MARK3
MARK3, sequence (P27448 whole entry, species assumed): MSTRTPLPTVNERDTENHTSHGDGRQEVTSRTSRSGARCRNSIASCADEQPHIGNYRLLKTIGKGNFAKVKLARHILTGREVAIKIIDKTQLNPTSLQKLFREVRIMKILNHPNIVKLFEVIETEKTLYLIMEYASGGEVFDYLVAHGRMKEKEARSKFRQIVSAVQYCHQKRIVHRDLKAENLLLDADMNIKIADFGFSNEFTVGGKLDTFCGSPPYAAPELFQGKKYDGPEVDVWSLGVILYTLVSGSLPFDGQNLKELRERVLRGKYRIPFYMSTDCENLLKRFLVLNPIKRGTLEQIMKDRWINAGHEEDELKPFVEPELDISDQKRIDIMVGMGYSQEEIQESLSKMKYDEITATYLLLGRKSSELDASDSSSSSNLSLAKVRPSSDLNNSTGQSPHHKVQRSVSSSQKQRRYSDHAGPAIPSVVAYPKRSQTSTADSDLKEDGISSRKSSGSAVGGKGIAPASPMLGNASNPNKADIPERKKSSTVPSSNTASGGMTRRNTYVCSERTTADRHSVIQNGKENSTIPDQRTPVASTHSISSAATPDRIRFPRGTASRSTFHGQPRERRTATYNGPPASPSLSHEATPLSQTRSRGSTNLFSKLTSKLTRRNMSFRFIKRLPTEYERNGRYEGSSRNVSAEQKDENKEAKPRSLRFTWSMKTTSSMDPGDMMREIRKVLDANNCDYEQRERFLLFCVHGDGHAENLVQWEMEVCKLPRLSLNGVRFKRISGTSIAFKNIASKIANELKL
From the text: as §1

CK2 = experiment: Kinase profiling CK2; settings: 100 micromolar inhibitor concentration; 100 is no change
From the text: as §1

DYRK1A = DYRK1A (Homo sapiens, UniProt Q13627); experiment: DYRK 1A assay (kinase profiling); settings: for remaining activity at 100 µM: read-out: residual kinase activity, DYRK1A
Description: Assays are stopped by addition of 5 μl of 0.5 M (3%) orthophosphoric acid and then harvested onto P81 Unifilter plates with a wash buffer of 50 mM orthophosphoric acid.
as §1

TBK1 = biological target: T3, TBK1 (Homo sapiens, UniProt Q9UHD2); experiment: Kinase profiling TBK1; settings: for remaining activity at 100 µM: read-out: residual kinase activity, TBK1
T3 sequence (Q9UHD2 1-729): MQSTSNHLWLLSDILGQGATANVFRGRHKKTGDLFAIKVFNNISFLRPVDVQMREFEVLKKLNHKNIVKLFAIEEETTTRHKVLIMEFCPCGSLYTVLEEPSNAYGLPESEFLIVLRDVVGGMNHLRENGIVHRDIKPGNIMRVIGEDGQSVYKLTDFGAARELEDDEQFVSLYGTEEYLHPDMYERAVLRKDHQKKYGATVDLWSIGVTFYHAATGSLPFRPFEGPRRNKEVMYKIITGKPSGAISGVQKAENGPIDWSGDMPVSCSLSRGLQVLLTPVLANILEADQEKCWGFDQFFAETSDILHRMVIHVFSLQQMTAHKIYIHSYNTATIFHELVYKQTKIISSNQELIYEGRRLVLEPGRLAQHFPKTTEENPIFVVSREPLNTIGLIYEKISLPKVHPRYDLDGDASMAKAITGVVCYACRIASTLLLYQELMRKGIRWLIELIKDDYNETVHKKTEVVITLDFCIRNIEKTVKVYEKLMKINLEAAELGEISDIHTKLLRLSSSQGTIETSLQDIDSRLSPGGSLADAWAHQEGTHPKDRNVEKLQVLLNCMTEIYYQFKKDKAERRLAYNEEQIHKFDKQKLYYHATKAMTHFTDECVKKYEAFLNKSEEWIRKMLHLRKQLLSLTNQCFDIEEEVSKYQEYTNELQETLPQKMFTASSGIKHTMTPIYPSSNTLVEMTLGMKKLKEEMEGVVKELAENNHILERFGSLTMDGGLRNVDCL
From the text: as §1

PIM1 = PIM1 (Homo sapiens, UniProt P11309); experiment: Kinase profiling PIM1; settings: for remaining activity at 100 µM: read-out: residual kinase activity, PIM1
PIM1, sequence (P11309 whole entry, species assumed): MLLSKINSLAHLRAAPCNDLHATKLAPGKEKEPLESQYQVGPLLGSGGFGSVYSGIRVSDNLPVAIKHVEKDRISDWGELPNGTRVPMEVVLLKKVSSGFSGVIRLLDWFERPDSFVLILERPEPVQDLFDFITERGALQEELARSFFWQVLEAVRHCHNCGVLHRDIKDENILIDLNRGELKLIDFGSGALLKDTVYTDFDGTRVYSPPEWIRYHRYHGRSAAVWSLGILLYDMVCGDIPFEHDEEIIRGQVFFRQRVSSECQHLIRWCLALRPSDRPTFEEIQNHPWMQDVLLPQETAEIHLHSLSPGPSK
From the text: as §1

RIPK2 = RIPK2 (Homo sapiens, UniProt O43353); experiment: Kinase profiling RIPK2; settings: for remaining activity at 100 µM: read-out: residual kinase activity, RIPK2
RIPK2, sequence (O43353 whole entry, species assumed): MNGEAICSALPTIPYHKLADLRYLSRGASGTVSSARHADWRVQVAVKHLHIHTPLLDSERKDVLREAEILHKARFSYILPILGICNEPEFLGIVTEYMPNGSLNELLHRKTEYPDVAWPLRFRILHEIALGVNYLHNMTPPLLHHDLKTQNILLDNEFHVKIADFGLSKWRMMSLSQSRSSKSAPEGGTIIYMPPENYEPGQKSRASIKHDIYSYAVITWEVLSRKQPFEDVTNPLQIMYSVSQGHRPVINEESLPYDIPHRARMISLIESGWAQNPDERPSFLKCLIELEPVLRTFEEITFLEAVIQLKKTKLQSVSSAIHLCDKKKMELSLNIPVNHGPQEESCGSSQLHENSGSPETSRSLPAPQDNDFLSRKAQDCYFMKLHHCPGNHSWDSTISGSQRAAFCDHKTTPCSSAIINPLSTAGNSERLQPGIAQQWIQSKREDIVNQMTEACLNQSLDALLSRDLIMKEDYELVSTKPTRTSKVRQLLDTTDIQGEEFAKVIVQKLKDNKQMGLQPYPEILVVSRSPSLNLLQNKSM
From the text: as §1

TrkA = TrkA (Homo sapiens, UniProt P04629); experiment: Kinase profiling TrkA; settings: for remaining activity at 100 µM: read-out: residual kinase activity, TrkA
TrkA, sequence (P04629 33-796, species assumed): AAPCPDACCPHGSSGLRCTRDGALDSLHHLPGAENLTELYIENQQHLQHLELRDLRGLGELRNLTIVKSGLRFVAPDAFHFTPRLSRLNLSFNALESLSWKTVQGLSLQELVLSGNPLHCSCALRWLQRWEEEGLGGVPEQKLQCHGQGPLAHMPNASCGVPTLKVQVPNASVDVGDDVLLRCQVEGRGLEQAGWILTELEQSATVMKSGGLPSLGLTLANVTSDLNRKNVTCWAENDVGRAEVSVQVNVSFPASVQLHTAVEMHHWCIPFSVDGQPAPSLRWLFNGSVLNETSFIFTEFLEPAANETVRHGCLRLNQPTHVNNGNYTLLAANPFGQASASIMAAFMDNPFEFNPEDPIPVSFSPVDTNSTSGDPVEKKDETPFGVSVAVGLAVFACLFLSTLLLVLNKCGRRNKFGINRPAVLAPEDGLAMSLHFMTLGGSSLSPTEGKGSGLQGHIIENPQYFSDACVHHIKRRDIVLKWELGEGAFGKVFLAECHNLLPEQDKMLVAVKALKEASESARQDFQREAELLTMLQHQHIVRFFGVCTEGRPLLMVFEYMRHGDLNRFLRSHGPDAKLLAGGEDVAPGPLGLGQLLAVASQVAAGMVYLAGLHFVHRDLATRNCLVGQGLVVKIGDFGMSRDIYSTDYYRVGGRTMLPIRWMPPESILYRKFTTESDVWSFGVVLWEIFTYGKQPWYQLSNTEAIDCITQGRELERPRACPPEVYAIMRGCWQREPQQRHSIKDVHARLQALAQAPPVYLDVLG
From the text: as §1

[1] = 100 micromolar inhibitor concentration, 100 is no change

JNK3, sequence (P53779 whole entry, species assumed): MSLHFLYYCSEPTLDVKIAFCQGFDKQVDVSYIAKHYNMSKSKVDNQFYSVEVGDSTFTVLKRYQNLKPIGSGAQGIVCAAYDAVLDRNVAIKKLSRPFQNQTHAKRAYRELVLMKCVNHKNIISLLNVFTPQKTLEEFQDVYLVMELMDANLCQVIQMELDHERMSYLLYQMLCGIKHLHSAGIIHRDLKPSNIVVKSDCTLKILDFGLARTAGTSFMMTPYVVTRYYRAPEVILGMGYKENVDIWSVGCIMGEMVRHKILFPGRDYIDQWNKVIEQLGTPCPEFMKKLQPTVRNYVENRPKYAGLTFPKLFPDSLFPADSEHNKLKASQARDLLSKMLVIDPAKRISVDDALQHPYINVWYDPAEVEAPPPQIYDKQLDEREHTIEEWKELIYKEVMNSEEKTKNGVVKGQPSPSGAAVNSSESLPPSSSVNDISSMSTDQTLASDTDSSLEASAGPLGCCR

Row | Structure (SMILES) | residual kinase activity, CK2 (CK2) | residual kinase activity, JNK3 (JNK3; [1]) | residual kinase activity, p38b MAPK (p38b MAPK; [1]) | residual kinase activity, p38d MAPK (p38d MAPK; [1]) | residual kinase activity, RSK1 (RSK1; [1]) | residual kinase activity, PKCa (PKCa; [1]) | residual kinase activity, PKD1 (PKD1; [1]) | other results
1 | CC(=O)Nc1nc2cc(O)ccc2s1 [Compound 01-66, N-(5-hydroxybenzo[d]thiazol-2-yl)acetamide] | 54 | – | – | – | – | – | – | remaining activity at 100 µM (JNK3): 37%; remaining activity at 100 µM (p38b MAPK): 92%; remaining activity at 100 µM (p38d MAPK): 70%; remaining activity at 100 µM (RSK1): 44%; remaining activity at 100 µM (PKCa): 82%; remaining activity at 100 µM (PKD1): 30%; remaining activity at 100 µM (CHK2): 31%; remaining activity at 100 µM (MARK3): 34%; remaining activity at 100 µM (DYRK1A): 5%; remaining activity at 100 µM (TBK1): 60%; remaining activity at 100 µM (PIM1): 12%; remaining activity at 100 µM (RIPK2): 29%; remaining activity at 100 µM (TrkA): 57%
2 | CC(=O)Nc1nc2ccc(O)cc2s1 [Compound 01-71] | 23 | – | – | – | – | – | – | remaining activity at 100 µM (JNK3; [1]): 66%; remaining activity at 100 µM (p38b MAPK; [1]): 106%; remaining activity at 100 µM (p38d MAPK; [1]): 43%; remaining activity at 100 µM (RSK1; [1]): 25%; remaining activity at 100 µM (PKCa; [1]): 77%; remaining activity at 100 µM (PKD1; [1]): 37%; remaining activity at 100 µM (CHK2; [1]): 17%; remaining activity at 100 µM (MARK3; [1]): 46%; remaining activity at 100 µM (DYRK1A; [1]): 20%; remaining activity at 100 µM (TBK1; [1]): 43%; remaining activity at 100 µM (PIM1; [1]): 19%; remaining activity at 100 µM (RIPK2; [1]): 22%; remaining activity at 100 µM (TrkA; [1]): 42%
3 | O=C(Nc1nc2cc(O)ccc2s1)c1cccnc1 [Compound 03-33] | 88 | 76 | 87 | 103 | 73 | 105 | 71 | residual kinase activity, CHK2 (CHK2; [1]): 46; residual kinase activity, MARK3 (MARK3; [1]): 85; residual kinase activity, DYRK1A (DYRK1A; [1]): 29; residual kinase activity, TBK1 (TBK1; [1]): 97; residual kinase activity, PIM1 (PIM1; [1]): 25; residual kinase activity, RIPK2 (RIPK2; [1]): 20; residual kinase activity, TrkA (TrkA; [1]): 51
4 | CC(=O)Nc1ccccc1C(=O)Nc1nc2ccc(O)cc2s1 [Compound 08-39] | – | 53 | 96 | 67 | 30 | 43 | 32 | –
5 | COc1ccc2sc(NC(=O)c3ccc(NC(C)=O)cc3)nc2c1 [MS:LY-2-77] | – | 88 | 110 | 98 | 85 | 97 | 114 | –
6 | CC(=O)NC(C)C(=O)Nc1nc2ccc(C(F)(F)F)cc2s1 (centres unmarked) [Compound 03-80] | – | 79 | 77 | 102 | 90 | 125 | 82 | –
7 | CC(=O)Nc1cccc(C(=O)Nc2nc3cc(O)ccc3s2)c1 [MS:LY-2-89] | – | 36 | 17 | 70 | 13 | 48 | 22 | –
8 | COc1ccc2sc(NC(=O)c3cccc(NC(C)=O)c3)nc2c1 [MS:LY-2-85] | – | 62 | 92 | 72 | 54 | 63 | 49 | –
9 | CC(=O)Nc1ccc(C(=O)Nc2nc3cc(O)ccc3s2)cc1 [MS:LY-2-87] | – | 66 | 82 | 75 | 29 | 59 | 52 | –
10 | CC(=O)Nc1cccc(C(=O)Nc2nc3ccc(O)cc3s2)c1 [Compound 03-58] | – | 51 | 75 | 75 | 35 | 96 | 54 | –
11 | CC(=O)Nc1nc2ccc([N+](=O)[O-])cc2s1 [Compound 13-10] | 51 | – | – | – | – | – | – | remaining activity at 100 µM (RSK1; [1]): 89%; remaining activity at 100 µM (PKCa; [1]): 93%; remaining activity at 100 µM (PKD1; [1]): 82%; remaining activity at 100 µM (CHK2; [1]): 59%; remaining activity at 100 µM (MARK3; [1]): 85%; remaining activity at 100 µM (DYRK1A; [1]): 6%; remaining activity at 100 µM (TBK1; [1]): 89%; remaining activity at 100 µM (PIM1; [1]): 81%; remaining activity at 100 µM (RIPK2; [1]): 27%; remaining activity at 100 µM (TrkA; [1]): 98%
